Active and inactive are the calls of the source. The calls are words filed in the database; no cut-off is given here.
target: T1, Uracil nucleotide/cysteinyl leukotriene receptor (Homo sapiens, UniProt Q13304); assay: Antagonist activity at human GPR17 receptor transfected in 1321N1 astrocytoma cells assessed as intracellular calcium mobilization by flurometric assay; format: functional, cell-based
T1 sequence (Q13304 whole entry): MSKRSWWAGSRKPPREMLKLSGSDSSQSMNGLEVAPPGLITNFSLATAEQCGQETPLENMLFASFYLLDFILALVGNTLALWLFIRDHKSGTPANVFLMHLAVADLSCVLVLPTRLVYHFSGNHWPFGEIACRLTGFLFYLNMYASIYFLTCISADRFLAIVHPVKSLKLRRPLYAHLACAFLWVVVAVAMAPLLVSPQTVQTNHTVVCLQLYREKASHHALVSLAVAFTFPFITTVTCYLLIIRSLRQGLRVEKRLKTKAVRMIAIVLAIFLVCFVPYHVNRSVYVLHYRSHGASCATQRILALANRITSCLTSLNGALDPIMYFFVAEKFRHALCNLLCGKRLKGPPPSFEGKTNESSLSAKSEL

Structure (SMILES)	Activity
COc1cc(OC)c2c(CCC(=O)O)c(C(=O)O)[nH]c2c1	inactive

target: T1, Uracil nucleotide/cysteinyl leukotriene receptor; assay: Agonist activity at human GPR17 receptor transfected in 1321N1 astrocytoma cells assessed as induction of intracellular calcium mobilization by fluorimetric assay; format: functional, cell-based

Structure (SMILES)	EC50
O=C(O)CCc1c(C(=O)O)[nH]c2cc(C(F)(F)F)cc(C(F)(F)F)c12	17.1 µM
O=C(O)CCc1c(C(=O)O)[nH]c2cc(Cl)cc(Cl)c12	0.331 µM
O=C(O)CCc1c(C(=O)O)[nH]c2cc(Cl)c(F)c(Cl)c12	52 µM
COc1cc(OC)c2c(CCC(=O)O)c(C(=O)O)[nH]c2c1	> 100 µM
O=C(O)CCc1c(C(=O)O)[nH]c2cc(Br)cc(Br)c12	0.202 µM

Second part, the compound after the results:

EC50	Structure (SMILES)
45.5 µM	O=C(O)CCc1c(C(=O)O)[nH]c2cccc(Br)c12
2.24 µM	O=C(O)CCc1c(C(=O)O)[nH]c2cc(Br)ccc12
36.8 µM	O=C(O)CCc1c(C(=O)O)[nH]c2cccc(I)c12
